In patent US5288720A, “Angiotensin II receptor blocking 2,3,6 substituted quinazolinones” (American Cyanamid Company, priority 1993, dated 1994):

Tested on: ANGIOTENSIN II VASOPRESSOR RESPONSE
Experiment: AII Challenge: blockade of angiotensin II vasopressor response in conscious SHR
Format: in vivo, rat (Conscious Male Okamoto-Aoki SHR)
Settings: SHR n=2
Summary of the method: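 Conscious male Okamoto-Aoki SHR (16-20 weeks, ~330 g) cannulated in aorta and vena cava under local procaine; angiotensin II (human) 0.05 and 0.1 ug/kg i.v. given before and at 30-300 min after test compound i.v., i.p. or orally. Rise in systolic pressure (mmHg) expressed as % blockade versus each rat's predose response.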

[1] = 3 mg/kg p.o., AII 0.05 mcg/kg IV, 30 min post dose
[2] = 3 mg/kg p.o., AII 0.05 mcg/kg IV, 60 min post dose
[3] = 3 mg/kg p.o., AII 0.05 mcg/kg IV, 90 min post dose
[4] = 3 mg/kg p.o., AII 0.05 mcg/kg IV, 120 min post dose
[5] = 3 mg/kg p.o., AII 0.05 mcg/kg IV, 180 min post dose
[6] = 3 mg/kg p.o., AII 0.05 mcg/kg IV, 240 min post dose
[7] = 3 mg/kg p.o., AII 0.05 mcg/kg IV, 300 min post dose
[8] = 3 mg/kg p.o., AII 0.1 mcg/kg IV, 30 min post dose
[9] = 3 mg/kg p.o., AII 0.1 mcg/kg IV, 60 min post dose
[10] = 3 mg/kg p.o., AII 0.1 mcg/kg IV, 90 min post dose
[11] = 3 mg/kg p.o., AII 0.1 mcg/kg IV, 120 min post dose
[12] = 3 mg/kg p.o., AII 0.1 mcg/kg IV, 180 min post dose
[13] = 3 mg/kg p.o., AII 0.1 mcg/kg IV, 240 min post dose
[14] = 3 mg/kg p.o., AII 0.1 mcg/kg IV, 300 min post dose
[15] = 10 mg/kg i.v., AII 0.05 mcg/kg IV, 30 min post dose
[16] = 10 mg/kg i.v., AII 0.05 mcg/kg IV, 60 min post dose
[17] = 10 mg/kg i.v., AII 0.05 mcg/kg IV, 90 min post dose
[18] = 10 mg/kg i.v., AII 0.05 mcg/kg IV, 120 min post dose
[19] = 10 mg/kg i.v., AII 0.05 mcg/kg IV, 180 min post dose
[20] = 10 mg/kg i.v., AII 0.05 mcg/kg IV, 240 min post dose
[21] = 10 mg/kg i.v., AII 0.05 mcg/kg IV, 300 min post dose
[22] = 10 mg/kg i.v., AII 0.1 mcg/kg IV, 30 min post dose
[23] = 10 mg/kg i.v., AII 0.1 mcg/kg IV, 60 min post dose
[24] = 10 mg/kg i.v., AII 0.1 mcg/kg IV, 90 min post dose
[25] = 10 mg/kg i.v., AII 0.1 mcg/kg IV, 120 min post dose
[26] = 10 mg/kg i.v., AII 0.1 mcg/kg IV, 180 min post dose
[27] = 10 mg/kg i.v., AII 0.1 mcg/kg IV, 240 min post dose
[28] = 10 mg/kg i.v., AII 0.1 mcg/kg IV, 300 min post dose

CCCCc1nc2ccc(C(OC)C3CCCN(C)C3=O)cc2c(=O)n1Cc1ccc(-c2ccccc2-c2nn[nH]n2)cc1 (single isomer, unassigned; isomer 2) [Example 43, 2-Butyl-6-[methoxy(1-methyl-2-oxo-3-piperidinyl)methyl]-3-[[2'-(1H-tetrazol-5-yl)[1,1'-biphenyl]-4-yl]methyl]-4(3H)-quinazoline isomer 2]
% Inhibition of AII vasopressor response [1]: 24%
Average Change (systolic blood pressure response to AII) [1]: 32.5 mmHg
% Inhibition of AII vasopressor response [2]: 47%
Average Change (systolic blood pressure response to AII) [2]: 22.5 mmHg
% Inhibition of AII vasopressor response [3]: 53%
Average Change (systolic blood pressure response to AII) [3]: 20 mmHg
% Inhibition of AII vasopressor response [4]: 53%
Average Change (systolic blood pressure response to AII) [4]: 20 mmHg
% Inhibition of AII vasopressor response [5]: 59%
Average Change (systolic blood pressure response to AII) [5]: 17.5 mmHg
% Inhibition of AII vasopressor response [6]: 35%
Average Change (systolic blood pressure response to AII) [6]: 27.5 mmHg
% Inhibition of AII vasopressor response [7]: 6%
Average Change (systolic blood pressure response to AII) [7]: 40 mmHg
% Inhibition of AII vasopressor response [8]: 19%
Average Change (systolic blood pressure response to AII) [8]: 32.5 mmHg
% Inhibition of AII vasopressor response [9]: 19%
Average Change (systolic blood pressure response to AII) [9]: 32.5 mmHg
% Inhibition of AII vasopressor response [10]: 56%
Average Change (systolic blood pressure response to AII) [10]: 17.5 mmHg
% Inhibition of AII vasopressor response [11]: 44%
Average Change (systolic blood pressure response to AII) [11]: 22.5 mmHg
% Inhibition of AII vasopressor response [12]: 6%
Average Change (systolic blood pressure response to AII) [12]: 37.5 mmHg
% Inhibition of AII vasopressor response [13]: 13%
Average Change (systolic blood pressure response to AII) [13]: 35 mmHg
% Inhibition of AII vasopressor response [14]: 8%
Average Change (systolic blood pressure response to AII) [14]: 37 mmHg
% Inhibition of AII vasopressor response [15]: 100%
Average Change (systolic blood pressure response to AII) [15]: 0 mmHg
% Inhibition of AII vasopressor response [16]: 77%
Average Change (systolic blood pressure response to AII) [16]: 7.5 mmHg
% Inhibition of AII vasopressor response [17]: 69%
Average Change (systolic blood pressure response to AII) [17]: 10 mmHg
% Inhibition of AII vasopressor response [18]: 69%
Average Change (systolic blood pressure response to AII) [18]: 10 mmHg
% Inhibition of AII vasopressor response [19]: 58%
Average Change (systolic blood pressure response to AII) [19]: 13.5 mmHg
% Inhibition of AII vasopressor response [20]: 0%
Average Change (systolic blood pressure response to AII) [20]: 32.5 mmHg
% Inhibition of AII vasopressor response [21]: 8%
Average Change (systolic blood pressure response to AII) [21]: 30 mmHg
% Inhibition of AII vasopressor response [22]: 92%
Average Change (systolic blood pressure response to AII) [22]: 2.5 mmHg
% Inhibition of AII vasopressor response [23]: 84%
Average Change (systolic blood pressure response to AII) [23]: 5 mmHg
% Inhibition of AII vasopressor response [24]: 84%
Average Change (systolic blood pressure response to AII) [24]: 5 mmHg
% Inhibition of AII vasopressor response [25]: 68%
Average Change (systolic blood pressure response to AII) [25]: 10 mmHg
% Inhibition of AII vasopressor response [26]: 44%
Average Change (systolic blood pressure response to AII) [26]: 17.5 mmHg
% Inhibition of AII vasopressor response [27]: 56%
Average Change (systolic blood pressure response to AII) [27]: 13.5 mmHg
% Inhibition of AII vasopressor response [28]: 19%
Average Change (systolic blood pressure response to AII) [28]: 25 mmHg
